Experimental data: publication PMC11341359, “Assessing the immunogenicity risk of salmon calcitonin peptide impurities using in silico and in vitro methods” (Frontiers in Pharmacology, 2024)
Peptide text beside a SMILES is read from it.

Key:
HLA DRB1*0101 = target: T1, HLA DRB1*0101 (Homo sapiens, UniProt P01903+P01911, A100R/D57E/F55L/F60I/F76Y/I96L/L162R/M171V/P40L/Q125E/R42F/V115G/Y59C); assay: Class II HLA competition binding assay; conditions: short assay peptides (Cys7 replaced with Ser); competition with biotinylated allele-specific peptide, soluble HLA DR, overnight, time-resolved fluorescence, triplicate, seven concentrations; unit inferred
T1 construct: incubated overnight to equilibrium with a soluble HLA DR molecule; purchased Benaroya Research Institute, Seattle, Washington
Method: (§1) The class II HLA binding assays performed for these studies measure the binding affinity of a target peptide to HLA DRB1*0101, *0301, *0401, *0701, *0901, *1101, *1301, and *1501 in a standardized competition assay. This assay was originally described by [Steere et al. (2006)] and adapted by EpiVax. Previous publications have described the assay in detail ([McMurry et al., 2007]; [Ardito et al., 2011]). Briefly, unlabeled test peptides are incubated overnight to equilibrium with a soluble HLA DR molecule (Benaroya Research Institute, Seattle, Washington) and a biotinylated, allele-specific competitor peptide. The binding reaction is then neutralized, and peptide–HLA complexes are transferred to a 96-well plate coated with the pan-HLA DR antibody, clone L243 (BioLegend), and incubated overnight. The following day, Europium-labeled streptavidin (PerkinElmer, Waltham, MA) is added to identify the peptide–HLA complexes. An indirect measure of binding is determined by time-resolved fluorescence. Each peptide–HLA binding reaction is evaluated in triplicate over a range of seven concentrations. The percent inhibition values at seven distinct concentrations are used to calculate the IC50 value, defined as the concentration at which the test peptide inhibits 50% of the labeled competitor peptide.
(§2) Peptides that bind to the HLA at an IC50 value of 100 nM or less are considered very high-affinity binders. Peptides that bind at IC50 values ranging from 100 nM to 1,000 nM are considered high-affinity binders. Peptides that bind at IC50 values ranging from 1,000 nM to 10,000 nM are considered moderate-affinity binders. Peptides that bind at IC50 values ranging from 10,000 nM to 100,000 nM are considered low-affinity binders, and those with IC50 values ranging from 100,000 nM to 1,000,000 nM are considered negligible-affinity binders. […] We note that these concentrations are specific for the in vitro HLA-binding assay and are used to compare the relative binding affinities of the impurity sequences to the API and independent from the peptide concentrations described for the in vitro T-cell assays described below.

HLA DRB1*1501 = target: T2, HLA DRB1*1501 (Homo sapiens, UniProt P01903+P01911); assay: Class II HLA competition binding assay; conditions: short assay peptides (Cys7 replaced with Ser); competition with biotinylated allele-specific peptide, soluble HLA DR, overnight, time-resolved fluorescence, triplicate, seven concentrations; unit inferred
T2 construct: incubated overnight to equilibrium with a soluble HLA DR molecule; purchased Benaroya Research Institute, Seattle, Washington
Method: as §1, §2

HLA DRB1*0401 = target: T3, HLA DRB1*0401 (Homo sapiens, UniProt P01903+P01911, A100K/A169T/F76Y/I96L/K127E/L162R/M171V/N62H/P40V/Q125Y/R42H/S133A/S149N/S66Y/V115G/V209L/W38E); assay: Class II HLA competition binding assay; conditions: short assay peptides (Cys7 replaced with Ser); competition with biotinylated allele-specific peptide, soluble HLA DR, overnight, time-resolved fluorescence, triplicate, seven concentrations
T3 construct: incubated overnight to equilibrium with a soluble HLA DR molecule; purchased Benaroya Research Institute, Seattle, Washington
Method: as §1, §2

HLA DRB1*0701 = HLA DRB1*0701 (Homo sapiens, UniProt P01903+P01911, A100R/A102G/A103Q/D57E/D86V/E43K/F76Y/K127E/L162R/M171V/P40G/Q125H/Q99D/R33Q/R42Y/R54Q/S133A/S66F/T210M/V115G/Y107V/Y59L/Y89S); assay: Class II HLA competition binding assay; conditions: short assay peptides (Cys7 replaced with Ser); competition with biotinylated allele-specific peptide, soluble HLA DR, overnight, time-resolved fluorescence, triplicate, seven concentrations
Method: as §1, §2

HLA DRB1*0301 = target: T4, HLA DRB1*0301 (Homo sapiens, UniProt P01903+P01911, A100K/A102G/A103R/A169T/F55Y/I96L/K41T/L162R/M171V/P40S/Q125H/Q178H/Q39Y/R42S/S66N/T106N/T262R/W38E/Y61H); assay: Class II HLA competition binding assay; conditions: short assay peptides (Cys7 replaced with Ser), competition with biotinylated allele-specific peptide, soluble HLA DR, overnight, time-resolved fluorescence, triplicate, seven concentrations; for IC50: unit inferred
T4 construct: incubated overnight to equilibrium with a soluble HLA DR molecule; purchased Benaroya Research Institute, Seattle, Washington
Method: as §1, §2

HLA DRB1*1301 = target: T5, HLA DRB1*1301 (Homo sapiens, UniProt P01903+P01911, A100E/A169T/K41T/L162R/M171V/P40S/Q125H/Q178H/Q39Y/Q99D/R42S/S66N/T262R/W38E/Y61H); assay: Class II HLA competition binding assay; conditions: short assay peptides (Cys7 replaced with Ser), competition with biotinylated allele-specific peptide, soluble HLA DR, overnight, time-resolved fluorescence, triplicate, seven concentrations; for IC50: unit inferred
T5 construct: incubated overnight to equilibrium with a soluble HLA DR molecule; purchased Benaroya Research Institute, Seattle, Washington
Method: as §1, §2

HLA DRB1*1101 = target: T6, HLA DRB1*1101 (Homo sapiens, UniProt P01903+P01911, A100R/A169T/A87E/I96F/K41T/L162R/M171V/P40S/Q125H/Q178H/Q39Y/Q99D/R42S/S66Y/T262R/V115G/W38E); assay: Class II HLA competition binding assay; conditions: short assay peptides (Cys7 replaced with Ser), competition with biotinylated allele-specific peptide, soluble HLA DR, overnight, time-resolved fluorescence, triplicate, seven concentrations; for IC50: unit inferred
T6 construct: incubated overnight to equilibrium with a soluble HLA DR molecule; purchased Benaroya Research Institute, Seattle, Washington
Method: as §1, §2

HLA DRB1*0901 = HLA DRB1*0901 (Homo sapiens, UniProt P01903+P01911, A100R/A103E/D57H/D86V/F55Y/F60I/F76Y/I96F/K127E/L162R/M171V/P40D/Q125H/Q99R/R33Q/R42F/S133A/S66N/T210M/V115G/W38K/Y107V/Y59G/Y89S); assay: Class II HLA competition binding assay; conditions: short assay peptides (Cys7 replaced with Ser); competition with biotinylated allele-specific peptide, soluble HLA DR, overnight, time-resolved fluorescence, triplicate, seven concentrations
Method: as §1, §2

[1] = of those who develop ADAs; ref LEVY et al., 1988; Grauer et al., 1995; cited from earlier work
Excerpt: In this case study, we describe an exercise to assess the immunogenicity risk of generic peptide impurities that were identified in salmon calcitonin (SCT). SCT is a peptide drug currently under development for the generic market by several manufacturers. Salmon calcitonin is a 32-amino acid peptide drug approved in the United States for the treatment of postmenopausal osteoporosis, Paget’s disease, and hypercalcemia. Salmon calcitonin shares only 50% amino acid sequence homology with human calcitonin (Figure 1), and despite its therapeutic benefits, in clinical trials, 40%–70% of patients tre ...

human donor PBMCs = assay: In vitro immunogenicity protocol (IVIP) naïve T-cell assay, IFNγ FluoroSpot; type: cell-based; conditions: individual full-length peptides at 20 μg/mL, 14 days, then 48 h IFNγ FluoroSpot; 16 donors; positive: SFC > 50 per 10^6, SI ≥ 2, p < 0.05 vs medium
Method: To improve the sensitivity of the T-cell assays, fresh (not frozen) blood samples were obtained from human blood donors for the T-cell assays (internal observations). Specifically, PBMCs were isolated from leukocyte reduction filters obtained from the Rhode Island Blood Center (RIBC) in Providence, RI. To confirm the sufficient breadth of HLA coverage in the donor cohort, high-resolution (4-digit) class II HLA haplotyping of donors was performed at the Transplant Immunology Laboratory at Hartford Hospital in Hartford, CT, using the sequence-specific oligonucleotide method (SSP-PCR). […] supertype alleles were expressed by the donor PBMCs used in the assays reported here (HLA DRB1*0301, *0401, *0701, *1101, *1301, and *1501). The HLA identified for the cohort of subjects used in this study is representative of 81.81% of the HLA alleles expressed by the global population. Forty percent of the donors were female and 60% of the donors were male, and their ages ranged from 17 to 83 years. Donor cohort demographic information and HLA types for each donor are provided in Supplementary Figure S1. To measure the naïve T-cell response to salmon calcitonin and impurity peptides, cells were plated at a density of 2.5 × 10^5 cells per well in 96-well U-bottom cell plates in RPMI 1640 cell culture medium supplemented with IL-2 (10 ng/mL) and IL-7 (20 ng/mL) (Gibco). The cells were incubated with […]®, or a synthetic salmon calcitonin peptide, or individual peptide impurities, at a concentration of 20 μg/mL for 14 days at 37°C/5% CO2, with medium exchanges that include cytokine support (IL-2 and IL-7) on days 4, 7, and 11. A concentration of 20 μg/mL (5.8 μM) was the dose selected for the SCT API and the four selected impurities, following a dose-ranging study performed with […]® to determine the maximum dose at which a T-cell response could be observed with no observed toxicity to the cells. The dose-ranging study was performed following the same protocol as described above. The following control antigens were used in the T-cell assays for each of the PBMC samples: positive controls, keyhole limpet hemocyanin (KLH; Thermo Fisher), and the antigenic peptide pool CEFT (ImmunoSpot). In addition, human serum albumin (HSA; Sigma-Aldrich) was used as a negative control antigen, and phytohemagglutinin (PHA; Thermo Fisher), a T-cell mitogen, was used to confirm T-cell functionality. […] Responses were considered positive if (1) the number of spots was at least twice the background (stimulation index [SI] ≥ 2); (2) there were greater than 50 spot-forming cells (SFCs) per 1.0 × 10^6 PBMCs; and (3) responses were statistically different from the media (Student's t-test). Each of the test articles (SCT API, RLD, or impurity peptide) and each of the positive and negative controls were evaluated in nine replicate wells containing donor PBMCs. Following the 14-day incubation, cells in the nine replicate wells were collected, pooled by the treatment condition, and re-plated in triplicate on a precoated anti-human IFNγ FluoroSpot plate (Mabtech) at a concentration of 1.0 × 10^5 cells per well in the presence of an appropriate test article or control reagent in supplemented RPMI 1640 culture medium. The FluoroSpot plates were incubated for 48 h at 37°C/5% CO2. After 48 h, FluoroSpot plates were developed according to the manufacturer's directions. Spots were counted on an iSpot Spectrum FluoroSpot reading system (AID, Strassberg, Germany) using software 7.0, build 14790. Fluorophore-specific spot parameters were defined using the spot size, spot intensity, and spot gradient. A spot separation algorithm was applied for optimal spot detection. Analysis and counting of spots were performed by unbiased experts at ZellNet Consulting, Inc. (Fort Lee, NJ).

[2] = greater than human calcitonin; ref Epand et al., 1983; Lee et al., 2011; Andreassen et al., 2014; cited from earlier work
Excerpt: Despite the risk of immunogenicity, SCT is preferred for therapeutic use over human calcitonin due to its 50-fold greater potency in vivo. Increased potency is attributed to the ability of the peptide to adopt an α-helical structure and bind to the human calcitonin receptor with a greater, and nearly irreversible, affinity relative to the human homolog ([Epand et al., 1983]; [Lee et al., 2011]; [Andreassen et al., 2014]).

Compound: CC(C)C[C@H](NC(=O)[C@H](CCC(=O)O)NC(=O)[C@H](CCC(N)=O)NC(=O)[C@@H](N)CO)C(=O)N[C@@H](Cc1c[nH]cn1)C(=O)N[C@@H](CCCCN)C(=O)N[C@@H](CC(C)C)C(=O)N[C@@H](CCC(N)=O)C(=O)N[C@H](C(=O)N[C@@H](Cc1ccc(O)cc1)C(=O)N1CCC[C@H]1C(=O)N[C@@H](CCCNC(=N)N)C(=O)N[C@H](C(=O)N[C@@H](CC(N)=O)C(=O)N[C@H](C(=O)O)[C@@H](C)O)[C@@H](C)O)[C@@H](C)O [API SCT(13-27)] (H-SQELHKLQTYPRTNT-OH)
- IC50 (HLA DRB1*0101): 3.35 µM
- IC50 (HLA DRB1*1501): 2.29 µM
- IC50 (HLA DRB1*0401): > 1000 µM
- IC50 (HLA DRB1*0701): > 1000 µM
- IC50 (HLA DRB1*0301): 66.4 µM
- IC50 (HLA DRB1*1301): 8.72 µM
- IC50 (HLA DRB1*1101): 161 µM
- IC50 (HLA DRB1*0901): > 1000 µM

Compound: CC(=O)NCCCC[C@H](NC(=O)CNC(=O)[C@H](CC(C)C)NC(=O)[C@@H](NC(=O)[C@H](CO)NC(=O)[C@@H](NC(=O)[C@@H](N)CO)[C@@H](C)O)C(C)C)C(=O)N[C@@H](CC(C)C)C(=O)N[C@@H](CO)C(=O)N[C@@H](CCC(N)=O)C(=O)N[C@@H](CCC(=O)O)C(=O)N[C@@H](CC(C)C)C(=O)N[C@@H](Cc1c[nH]cn1)C(=O)N[C@@H](CCCCN)C(=O)N[C@@H](CC(C)C)C(=O)O [LYS-AC11_SCT(5-19)] (H-STSVLGK(Ac)LSQELHKL-OH)
- IC50 (HLA DRB1*0101): 12.3 µM
- IC50 (HLA DRB1*1501): 12.8 µM
- IC50 (HLA DRB1*0401): > 1000 µM
- IC50, HLA DRB1*0401 (HLA DRB1*0401): non-binder
- IC50 (HLA DRB1*0701): > 1000 µM
- IC50, HLA DRB1*0701 (HLA DRB1*0701): non-binder
- IC50 (HLA DRB1*0301): > 1000 µM
- IC50, HLA DRB1*0301 (HLA DRB1*0301; unit not given): non-binder
- IC50 (HLA DRB1*1301): > 1000 µM
- IC50, HLA DRB1*1301 (HLA DRB1*1301; unit not given): non-binder
- IC50 (HLA DRB1*1101): > 1000 µM
- IC50, HLA DRB1*1101 (HLA DRB1*1101; unit not given): loss of binding
- IC50 (HLA DRB1*0901): > 1000 µM
- IC50, HLA DRB1*0901 (HLA DRB1*0901): non-binder

Compound: CSNLSTCVLGKLSQELHKLQTYPRTNTGSGTP (disulfide) [SCT API, salmon calcitonin, 32-amino acid peptide drug, disulfide Cys1-Cys7, C-terminus amidated]
- patients with ADAs who develop neutralizing anti-SCT antibodies (NADAs) [1]: more than 60%
- Percentage of Responding Donors (human donor PBMCs): 44%
- Responding Donors (human donor PBMCs): 7
- potency in vivo relative to human calcitonin [2]: 50 fold
